Molecular target: G. pallida SER-7 (Globodera pallida, UniProt A0A183BS20, DEL280-286/G462A/H333Q/S454N/S6T/Y334H)
Test: Cut head pharyngeal pumping assay, ser-7 (tm1325) expressing Gpa-ser-7

For `NCCc1c[nH]c2ccc(O)cc12` [serotonin, 5-hydroxytryptamine], which EC50 is on record?
The EC50 was 3.9 µM.

— US20210360924A1, “PLANT OR SEED COATING” (University of Southampton, priority 2017, published 2021)
